In ChEMBL document CHEMBL2073861, “Molecular identification of a novel carnitine transporter specific to human testis. Insights into the mechanism of carnitine recognition” (J Biol Chem, 2002):
One block for each molecule: values may come before it.

Assays:
[1] = molecular target: Solute carrier family 22 member 16 (Homo sapiens) (UniProt Q86VW1); assay: TP_TRANSPORTER: inhibition of carnitine uptake by Carnitine-related compound-12A at 20uM in Xenopus laevis oocytes; set-up: scale not given: the % may be the effect or the level left; details: Oocyte
[2] = molecular target: T1, Solute carrier family 22 member 16 (Homo sapiens, UniProt Q86VW1); assay: TP_TRANSPORTER: inhibition of carnitine transport by Octanoyl-carnitine at 5uM in Xenopus laevis oocytes; assay type: functional, cell-based; set-up: scale not given: the % may be the effect or the level left; details: oocyte
T1 sequence (Q86VW1 whole entry): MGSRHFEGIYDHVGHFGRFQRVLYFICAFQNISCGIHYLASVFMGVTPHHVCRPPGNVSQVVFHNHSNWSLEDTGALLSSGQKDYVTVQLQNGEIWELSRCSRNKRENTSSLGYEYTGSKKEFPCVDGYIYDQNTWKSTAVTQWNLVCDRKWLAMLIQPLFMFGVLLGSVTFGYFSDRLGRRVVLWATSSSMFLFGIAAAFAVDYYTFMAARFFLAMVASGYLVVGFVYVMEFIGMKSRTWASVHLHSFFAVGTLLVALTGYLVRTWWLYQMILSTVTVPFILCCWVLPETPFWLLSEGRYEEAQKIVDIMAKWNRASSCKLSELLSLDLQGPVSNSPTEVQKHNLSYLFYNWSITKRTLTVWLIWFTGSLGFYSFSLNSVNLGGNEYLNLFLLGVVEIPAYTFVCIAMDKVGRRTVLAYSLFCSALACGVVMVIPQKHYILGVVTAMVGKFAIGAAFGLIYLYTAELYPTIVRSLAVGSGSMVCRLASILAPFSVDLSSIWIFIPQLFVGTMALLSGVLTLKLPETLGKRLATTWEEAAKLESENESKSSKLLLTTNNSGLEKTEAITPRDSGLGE

[3] = molecular target: T1, Solute carrier family 22 member 16; assay: TP_TRANSPORTER: inhibition of carnitine transport by Acetyl-L-carnitine at 5uM in Xenopus laevis oocytes; assay type: functional, cell-based, Oocyte; set-up: scale not given: the % may be the effect or the level left; details: probe carnitine, read-out: Activity
[4] = molecular target: Solute carrier family 22 member 16 (Homo sapiens) (UniProt Q86VW1); assay: TP_TRANSPORTER: inhibition of carnitine uptake by Carnitine-related compound-11A at 20uM in Xenopus laevis oocytes; set-up: scale not given: the % may be the effect or the level left; details: Oocyte
[5] = molecular target: T2, Organic cation/carnitine transporter 2 (Homo sapiens, UniProt O76082); assay: TP_TRANSPORTER: inhibition of carnitine uptake by Carnitine-related compound-5A at 20uM in Xenopus laevis oocytes; assay type: functional, cell-based, Oocyte; set-up: scale not given: the % may be the effect or the level left; details: probe carnitine, read-out: Activity
T2 sequence (O76082 whole entry): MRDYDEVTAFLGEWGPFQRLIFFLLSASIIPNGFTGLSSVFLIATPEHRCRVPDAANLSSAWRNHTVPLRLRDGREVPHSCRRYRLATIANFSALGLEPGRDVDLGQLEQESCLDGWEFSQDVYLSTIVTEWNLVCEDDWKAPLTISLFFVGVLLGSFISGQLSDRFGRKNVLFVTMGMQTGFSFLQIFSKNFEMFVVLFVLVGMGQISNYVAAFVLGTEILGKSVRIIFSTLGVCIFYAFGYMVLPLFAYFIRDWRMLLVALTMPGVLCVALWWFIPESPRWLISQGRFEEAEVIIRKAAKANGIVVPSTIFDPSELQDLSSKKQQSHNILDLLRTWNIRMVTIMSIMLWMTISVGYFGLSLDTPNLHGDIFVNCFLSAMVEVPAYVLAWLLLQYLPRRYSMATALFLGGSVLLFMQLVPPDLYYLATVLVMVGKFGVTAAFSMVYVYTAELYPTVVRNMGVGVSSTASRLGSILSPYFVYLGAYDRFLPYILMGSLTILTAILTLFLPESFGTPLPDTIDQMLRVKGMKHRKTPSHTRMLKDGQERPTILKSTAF

[6] = molecular target: Solute carrier family 22 member 16 (Homo sapiens) (UniProt Q86VW1); assay: TP_TRANSPORTER: inhibition of carnitine uptake by Carnitine-related compound-5A at 20uM in Xenopus laevis oocytes; set-up: scale not given: the % may be the effect or the level left; details: Oocyte
[7] = molecular target: Solute carrier family 22 member 16 (Homo sapiens) (UniProt Q86VW1); assay: TP_TRANSPORTER: inhibition of carnitine uptake by Carnitine-related compound-18 at 20uM in Xenopus laevis oocytes; set-up: scale not given: the % may be the effect or the level left; details: Oocyte
[8] = molecular target: Solute carrier family 22 member 16 (Homo sapiens) (UniProt Q86VW1); assay: TP_TRANSPORTER: inhibition of carnitine uptake by Carnitine-related compound-9A at 20uM in Xenopus laevis oocytes; set-up: scale not given: the % may be the effect or the level left; details: Oocyte
[9] = molecular target: T2, Organic cation/carnitine transporter 2; assay: TP_TRANSPORTER: inhibition of carnitine transport by Carnitine-related compound-9A at 20uM in Xenopus laevis oocytes; assay type: functional, cell-based, Oocyte; set-up: scale not given: the % may be the effect or the level left; details: probe carnitine, read-out: Activity
[10] = molecular target: Solute carrier family 22 member 16 (Homo sapiens) (UniProt Q86VW1); assay: TP_TRANSPORTER: inhibition of carnitine uptake by Carnitine-related compound-6A at 20uM in Xenopus laevis oocytes; set-up: scale not given: the % may be the effect or the level left; details: Oocyte
[11] = molecular target: T2, Organic cation/carnitine transporter 2; assay: TP_TRANSPORTER: inhibition of carnitine transport by Carnitine-related compound-3A at 20uM in Xenopus laevis oocytes; assay type: functional, cell-based, Oocyte; set-up: scale not given: the % may be the effect or the level left; details: probe carnitine, read-out: Activity
[12] = molecular target: Solute carrier family 22 member 16 (Homo sapiens) (UniProt Q86VW1); assay: TP_TRANSPORTER: inhibition of carnitine uptake by Carnitine-related compound-3A at 20uM in Xenopus laevis oocytes; set-up: scale not given: the % may be the effect or the level left; details: Oocyte
[13] = molecular target: Solute carrier family 22 member 16 (Homo sapiens) (UniProt Q86VW1); assay: TP_TRANSPORTER: inhibition of carnitine uptake by Carnitine-related compound-10A at 20uM in Xenopus laevis oocytes; set-up: scale not given: the % may be the effect or the level left; details: Oocyte
[14] = molecular target: T2, Organic cation/carnitine transporter 2; assay: TP_TRANSPORTER: inhibition of carnitine uptake by Carnitine-related compound-10A at 20uM in Xenopus laevis oocytes; assay type: functional, cell-based, Oocyte; set-up: scale not given: the % may be the effect or the level left; details: probe carnitine, read-out: Activity
[15] = molecular target: Solute carrier family 22 member 16 (Homo sapiens) (UniProt Q86VW1); assay: TP_TRANSPORTER: inhibition of carnitine uptake by Carnitine-related compound-8A at 20uM in Xenopus laevis oocytes; set-up: scale not given: the % may be the effect or the level left; details: Oocyte
[16] = molecular target: T2, Organic cation/carnitine transporter 2; assay: TP_TRANSPORTER: inhibition of carnitine transport by Carnitine-related compound-8A at 20uM in Xenopus laevis oocytes; assay type: functional, cell-based, Oocyte; set-up: scale not given: the % may be the effect or the level left; details: probe carnitine, read-out: Activity
[17] = molecular target: T1, Solute carrier family 22 member 16; assay: TP_TRANSPORTER: inhibition of carnitine in Xenopus laevis oocytes; assay type: functional, cell-based, Oocyte
[18] = molecular target: T2, Organic cation/carnitine transporter 2; assay: TP_TRANSPORTER: inhibition of carnitine transport by Carnitine-related compound-7A at 20uM in Xenopus laevis oocytes; assay type: functional, cell-based, Oocyte; set-up: scale not given: the % may be the effect or the level left; details: probe carnitine, read-out: Activity
[19] = molecular target: Solute carrier family 22 member 16 (Homo sapiens) (UniProt Q86VW1); assay: TP_TRANSPORTER: inhibition of carnitine uptake by Carnitine-related compound-7A at 20uM in Xenopus laevis oocytes; set-up: scale not given: the % may be the effect or the level left; details: Oocyte
[20] = molecular target: Solute carrier family 22 member 16 (Homo sapiens) (UniProt Q86VW1); assay: TP_TRANSPORTER: inhibition of carnitine uptake by Carnitine-related compound-17 at 20uM in Xenopus laevis oocytes; set-up: scale not given: the % may be the effect or the level left; details: Oocyte
[21] = molecular target: Solute carrier family 22 member 16 (Homo sapiens) (UniProt Q86VW1); assay: TP_TRANSPORTER: inhibition of carnitine uptake by Carnitine-related compound-2A at 20uM in Xenopus laevis oocytes; set-up: scale not given: the % may be the effect or the level left; details: Oocyte
[22] = molecular target: T2, Organic cation/carnitine transporter 2; assay: TP_TRANSPORTER: inhibition of carnitine uptake by Carnitine-related compound-2A at 20uM in Xenopus laevis oocytes; assay type: functional, cell-based, Oocyte; set-up: scale not given: the % may be the effect or the level left; details: probe carnitine, read-out: Activity
[23] = molecular target: T2, Organic cation/carnitine transporter 2; assay: TP_TRANSPORTER: inhibition of carnitine uptake by Carnitine-related compound-14 at 20uM in Xenopus laevis oocytes; assay type: functional, cell-based, Oocyte; set-up: scale not given: the % may be the effect or the level left; details: probe carnitine, read-out: Activity
[24] = molecular target: Solute carrier family 22 member 16 (Homo sapiens) (UniProt Q86VW1); assay: TP_TRANSPORTER: inhibition of carnitine uptake by Carnitine-related compound-4A at 20uM in Xenopus laevis oocytes; set-up: scale not given: the % may be the effect or the level left; details: Oocyte
[25] = molecular target: T2, Organic cation/carnitine transporter 2; assay: TP_TRANSPORTER: inhibition of carnitine uptake by Carnitine-related compound-4A at 20uM in Xenopus laevis oocytes; assay type: functional, cell-based; set-up: scale not given: the % may be the effect or the level left; details: oocyte
[26] = molecular target: T2, Organic cation/carnitine transporter 2; assay: TP_TRANSPORTER: inhibition of carnitine uptake by Carnitine-related compound-13 at 20uM in Xenopus laevis oocytes; assay type: functional, cell-based, Oocyte; set-up: scale not given: the % may be the effect or the level left; details: probe carnitine, read-out: Activity
[27] = molecular target: Solute carrier family 22 member 16 (Homo sapiens) (UniProt Q86VW1); assay: TP_TRANSPORTER: inhibition of carnitine uptake by Carnitine-related compound-13 at 20uM in Xenopus laevis oocytes; set-up: scale not given: the % may be the effect or the level left; details: Oocyte
[28] = substrate: C[N+](C)(C)CC(O)CC(=O)[O-]; assay: TP_TRANSPORTER: uptake in Xenopus laevis oocytes; assay type: functional, cell-based, Oocyte

Activity [2]: 70%
Molecule: CCCCCCCC(=O)OC(CC(=O)O)C[N+](C)(C)C.[Cl-] (stereo not drawn) [Octanoyl-carnitine]

Activity [7]: 20%
Molecule: CC[N+](CC)(CC)CC(O)CCC(=O)[O-] (stereo not drawn)

activity at 20 µM [11]: 20%
Activity [12]: 20%
Molecule: CC[N+](C)(CC)CCCCC(=O)O

Activity [13]: 40%
activity at 20 µM [14]: 50%
Molecule: C[N+](C)(C)CCCCCCC(=O)O

Ki [17]: 30 µM
Molecule: C[N+](C)(C)C[C@@H](O)CC(=O)[O-] [D-CARNITINE]

activity at 20 µM [18]: 35%
Activity [19]: 20%
Molecule: C[N+](C)(C)CCCCCC(=O)O

Activity [20]: 20%
Molecule: CC[N+](C)(CC)CC(O)CCC(=O)[O-] (stereo not drawn)

Activity [21]: 20%
activity at 20 µM [22]: 40%
Molecule: C[N+](C)(C)CCCCC(=O)O

activity at 20 µM [23]: 70%
Molecule: CC[N+](CC)(CC)CC(O)CC(=O)[O-] (stereo not drawn)

activity at 20 µM [26]: 40%
Activity [27]: 20%
Molecule: C[N+](C)(C)CC(O)CC(=O)[O-] (stereo not drawn) [CARNITINE]

More lines, now with the values behind:

Molecule: CC[N+](CC)(CC)CCCCCCC(=O)O
Activity [1]: 50%

Molecule: CC(=O)O[C@H](CC(=O)[O-])C[N+](C)(C)C [ACETYLCARNITINE]
activity at 5 µM [3]: 70%

Molecule: CC[N+](C)(CC)CCCCCCC(=O)O
Activity [4]: 50%

Molecule: CC[N+](CCCCC(=O)O)(C(C)C)C(C)C
activity at 20 µM [5]: 40%
Activity [6]: 20%

Molecule: CC[N+](CC)(CC)CCCCCC(=O)O
Activity [8]: 20%
activity at 20 µM [9]: 30%

Molecule: CCC[N+](CCC)(CCC)CCCCC(=O)O
Activity [10]: 70%

Molecule: CC[N+](C)(CC)CCCCCC(=O)O
Activity [15]: 30%
activity at 20 µM [16]: 20%

Molecule: CC[N+](CC)(CC)CCCCC(=O)O.[Cl-]
Activity [24]: 20%
Activity [25]: 50%

B1: Solute carrier family 22 member 16 (Homo sapiens) (protein)
chain: MGSRHFEGIYDHVGHFGRFQRVLYFICAFQNISCGIHYLASVFMGVTPHHVCRPPGNVSQVVFHNHSNWSLEDTGALLSSGQKDYVTVQLQNGEIWELSRCSRNKRENTSSLGYEYTGSKKEFPCVDGYIYDQNTWKSTAVTQWNLVCDRKWLAMLIQPLFMFGVLLGSVTFGYFSDRLGRRVVLWATSSSMFLFGIAAAFAVDYYTFMAARFFLAMVASGYLVVGFVYVMEFIGMKSRTWASVHLHSFFAVGTLLVALTGYLVRTWWLYQMILSTVTVPFILCCWVLPETPFWLLSEGRYEEAQKIVDIMAKWNRASSCKLSELLSLDLQGPVSNSPTEVQKHNLSYLFYNWSITKRTLTVWLIWFTGSLGFYSFSLNSVNLGGNEYLNLFLLGVVEIPAYTFVCIAMDKVGRRTVLAYSLFCSALACGVVMVIPQKHYILGVVTAMVGKFAIGAAFGLIYLYTAELYPTIVRSLAVGSGSMVCRLASILAPFSVDLSSIWIFIPQLFVGTMALLSGVLTLKLPETLGKRLATTWEEAAKLESENESKSSKLLLTTNNSGLEKTEAITPRDSGLGE
Km [28]: 20 µM
